Experiment [1] concerns Acinetobacter baumannii ATCC 19606. In words: Growth inhibition around wells on LB agar plates. The experiment is classed as cell-based. Conditions: A. baumannii ATCC 19606.
Experiment [2] addresses brush-border membrane (BBM) from the renal cortex. In words: Inhibition of binding of radiolabelled gentamycin to brush-border membrane vesicles. Conditions: rat renal cortex BBM vesicles; 20 μM [3H] gentamycin; 60 min at 4° C. From the text:
The binding of the compounds according to this invention to isolated brush-border membrane (BBM) from the renal cortex can be measured indirectly by measuring their ability to inhibit the binding of radiolabelled gentamycin to BBM. Accordingly, the compounds according to this invention that have less affinity to BBM than for example polymyxin B inhibit the binding of radiolabelled gentamycin to a lesser degree than does polymyxin B.
BBM was isolated from the renal cortex of male albino rats by using the Mg^2+/EGTA precipitation technique as described by Nagai et al. (2006). The binding of gentamycin was measured, according to the method described by Nagai et al. (2006) by incubating BBM vesicles (20 μl) in 10 mM HEPES (pH 7.5) with 300 mM mannitol in the presence of 20 μM [^3H] gentamycin (American Radiolabeled Chemicals, Inc. (St. Louis, Mo., U.S.A.) with or without the compound to be tested or a positive control. After an incubation of 60 min at 4° C., 1 ml of ice-cold buffer described above was added, and the mixture was filtered through a Millipore filter (0.45 μm; HAWP). The filter was washed with the buffer and the radioactivity remaining in the filter was measured by using a liquid scintillation counter. The IC50 values were determined as in Nagai et al. (2006) using the Hill equation.

A further experiment concerns E. coli F18. The experiment is classed as cell-based, Escherichia coli. As for the experimental part:
The MIC values of NAB 739, NAB 740, and NAB7061 were determined by using the agar dilution method according to the CLSI protocol M7-A7. Polymyxin B sulfate (Sigma-Aldrich, St. Louis, Mo., USA) was used as a control. […]; two-fold increments) of the test substances were used. The bacterial test strains originated from ATCC (10 strains), CCUG (11 strains), and NCTC (3 strains). Fourteen (14) strains (the F-strains) were purchased from Mobidiag Ltd., Helsinki, Finland. Besides bacteria, the MIC was also determined for the yeast Candida albicans (ATCC 28366 from ATCC).
(§1) The inocula were prepared by adjusting the bacterial suspensions to a density equivalent to OD546 nm˜0.3 (˜10^8 CFU/ml˜0.5 McFarland) the yeast suspension to a density equivalent to OD546 nm˜0.75 (˜2×10^7 CFU/ml)._The suspensions were diluted to 10^7 CFU/ml. The plates were inoculated by using a Denley Multipoint Inoculator, 1 μl per spot corresponding to approx. 10^4 CFU/spot. Plates were incubated for 16-20 hours at 35° C.

In another experiment the test system is A. baumannii ATCC 19606. In words: Sensitization to rifampin: growth inhibition around wells on LB plates containing rifampin. It is filed as cell-based, Acinetobacter baumannii. Conditions: 4 μg.
Experiment [3] has as its system Pseudomonas aeruginosa ATCC 27853. In words: Growth inhibition around wells on LB agar plates. Conditions: Ps. aeruginosa ATCC 27853. The experiment is classed as cell-based. Put shortly: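 Activity against Pseudomonas aeruginosa ATCC 27853 was assessed by agar well diffusion on LB plates. A suspension of about 10^8 cells/ml in 0.9% NaCl was spread over the agar and the excess removed. Once the surface had dried, 2 mm wells were drilled and filled with peptide dissolved in 0.9% NaCl. Plates were incubated 18 h at 37° C, and inhibition zone diameters were converted to areas in square mm.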

Another experiment has as its system A. baumannii F264. As for the experimental part: (§2) Polymyxin B sulfate (Sigma-Aldrich, St. Louis, Mo., USA) was used as a control. […] The bacterial test strains originated from ATCC (10 strains), CCUG (11 strains), and NCTC (3 strains). Fourteen (14) strains (the F-strains) were purchased from Mobidiag Ltd., Helsinki, Finland.
as §1

The next experiment deals with E. coli CCUG 41422. As to the method: as §2, §1
Experiment [4] concerns Ps. aeruginosa ATCC 27853. Kind of experiment: Sensitization to rifampin: growth inhibition around wells on LB plates containing rifampin. The experiment is classed as cell-based, Pseudomonas aeruginosa. Conditions: 4 μg.
The test system of the next experiment is E. coli IH3080. In words: Growth inhibition around wells on LB agar plates. It is filed as cell-based, Escherichia coli. Put shortly: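 Growth inhibition of encapsulated E. coli IH3080 (K1:O018) was assessed on LB agar plates. A suspension of about 10^8 cells/ml in 0.9% NaCl, made from an overnight LB agar culture, was spread across the plate surface and the excess removed. After drying, 2 mm wells were drilled, with 0.9% NaCl as control. Following 18 h at 37° C., inhibition zone diameters around wells were converted to areas in square mm.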

In the next experiment the test system is E. coli NCTC 13351. As to the method:
as §2, §1

These results are taken from patent US8329645B2, “Polymyxin derivatives and uses thereof” (priority 2008, dated 2012).

Values after ≈ are worked out from the molar mass of the structure shown. Read-outs that look alike come from different tables or passages of the source. Where a SMILES comes first, the peptide text is derived from it. Bridges are numbered along the chain shown (N, C = ends). [ ]: non-standard residue; d: D form. The star is where a group is joined. Decanoyl = CCCCCCCCCC(=O)*; Octanoyl = CCCCCCCC(=O)*; Dab = NCC[C@H](N)C(=O)O; Abu = CC[C@H](N)C(=O)O

The IC50 is the midpoint of a concentration-inhibition curve. Broadly, the MIC is the smallest concentration in the dilution series that meets the test's criterion for growth inhibition. Consider `CCCCCCCC(=O)N[C@H](C(=O)N[C@H](CO)C(=O)N[C@H]1CCNC(=O)[C@H]([C@@H](C)O)NC(=O)[C@H](CCN)NC(=O)[C@H](CCN)NC(=O)[C@H](CC(C)C)NC(=O)[C@@H](Cc2ccccc2)NC(=O)[C@H](CCN)NC1=O)[C@@H](C)O` [NAB 739, OA-Thr-DSer-cy[Dab-Dab-DPhe-Leu-Dab-Dab-Thr-]] (Octanoyl-T[dS][Dab][Dab][dF]L[Dab][Dab]T; lactam 3-C), for which the “growth inhibition around a well” value in experiment [1] (4 μg) is on record as 113 square millimeters; in [1] (10 μg), 177 square millimeters; in experiment [3] (4 μg) it was 38 square millimeters; in experiment [3] (10 μg) it was 79 square millimeters. Also, the IC50 in experiment [2] was determined as 264 ± 91 µM. Further, the MIC with E. coli F18 came to 1 mg/L (≈ 0.929 µM); in the experiment on A. baumannii F264 (F264) it was 4 mg/L (≈ 3.72 µM); with E. coli CCUG 41422 it was 1 mg/L (≈ 0.929 µM). Also, the “growth inhibition around a well in the presence of rifampin” value with A. baumannii ATCC 19606 (rifampin 0 μg/ml) turned out to be 113 square millimeters; in the experiment with A. baumannii ATCC 19606 (rifampin 0.1 μg/ml), 177 square millimeters; in the experiment on A. baumannii ATCC 19606 (rifampin 0.3 μg/ml), 314 square millimeters; in [4] (rifampin 0 μg/ml) it was 38 square millimeters; in experiment [4] (rifampin 0.3 μg/ml), 64 square millimeters.

In the case of `CCCCCCCCCC(=O)N[C@H](C(=O)N[C@H](CO)C(=O)N[C@H]1CCNC(=O)[C@H]([C@@H](C)O)NC(=O)[C@H](CCN)NC(=O)[C@H](CCN)NC(=O)[C@H](CC(C)C)NC(=O)[C@@H](Cc2ccccc2)NC(=O)[C@H](CCN)NC1=O)[C@@H](C)O` [NAB 740, DA-Thr-DSer-cy[Dab-Dab-DPhe-Leu-Dab-Dab-Thr-]] (Decanoyl-T[dS][Dab][Dab][dF]L[Dab][Dab]T; lactam 3-C), the “growth inhibition around a well” value in the experiment with E. coli IH3080 (10 μg of compound per well) was found to be 133 square millimeters; in experiment [1] (4 μg), 133 square millimeters; in experiment [1] (10 μg), 201 square millimeters; in experiment [3] (4 μg), 64 square millimeters; in experiment [3] (10 μg) it was 133 square millimeters. Further, in experiment [2], the IC50 came out at 198 ± 49 µM. The MIC in the experiment with E. coli F18 is 2 mg/L (≈ 1.81 µM); with E. coli NCTC 13351 (NCTC 13351), 1 mg/L (≈ 0.906 µM); against A. baumannii F264 (F264), 2 mg/L (≈ 1.81 µM); in the experiment with E. coli CCUG 41422 it was 2 mg/L (≈ 1.81 µM). Further, the “growth inhibition around a well in the presence of rifampin” value in the experiment on A. baumannii ATCC 19606 (rifampin 0 μg/ml) is reported as 133 square millimeters; with A. baumannii ATCC 19606 (rifampin 0.3 μg/ml) it was 154 square millimeters; in [4] (rifampin 0 μg/ml) it was 64 square millimeters; in experiment [4] (rifampin 0.1 μg/ml) it was 64 square millimeters; in experiment [4] (rifampin 0.3 μg/ml), 64 square millimeters.

Take `CCCCCCCC(=O)N[C@H](C(=O)N[C@@H](CC)C(=O)N[C@H]1CCNC(=O)[C@H]([C@@H](C)O)NC(=O)[C@H](CCN)NC(=O)[C@H](CCN)NC(=O)[C@H](CC(C)C)NC(=O)[C@@H](Cc2ccccc2)NC(=O)[C@H](CCN)NC1=O)[C@@H](C)O` [NAB 7061, OA-Thr-Abu-cy[Dab-Dab-DPhe-Leu-Dab-Dab-Thr-]] (Octanoyl-T[Abu][Dab][Dab][dF]L[Dab][Dab]T; lactam 3-C): the “growth inhibition around a well” value (in the experiment with E. coli IH3080 (4 μg of compound per well); in experiment [1] (4 μg); in [1] (10 μg); in experiment [3] (4 μg); in experiment [3] (10 μg)) was 0 square millimeters each time. For the same compound, the MIC against E. coli F18, with E. coli NCTC 13351 (NCTC 13351), against A. baumannii F264 (F264) and against E. coli CCUG 41422 was over 32 mg/L throughout. Moreover, the “growth inhibition around a well in the presence of rifampin” value in the experiment with A. baumannii ATCC 19606 (rifampin 0 μg/ml) amounted to 0 square millimeters; with A. baumannii ATCC 19606 (rifampin 0.3 μg/ml), 50 square millimeters; in [4] (rifampin 0 μg/ml), 0 square millimeters; in experiment [4] (rifampin 0.1 μg/ml) it was 0 square millimeters; in experiment [4] (rifampin 0.3 μg/ml), 0 square millimeters.

Polymyxin B [reference compound]: the “growth inhibition around a well” value in the experiment on E. coli IH3080 (4 μg of compound per well, listed as Polymyxin B sulfate) is reported as 95 square millimeters; in experiment [3] (10 μg), 133 square millimeters. Further, the IC50 in experiment [2] came to 39.3 ± 5.5 µM. Further, the MIC against E. coli F18, in the experiment on E. coli NCTC 13351 (E. coli NCTC13351) and with A. baumannii F264 (A. baumannii F264) was 0.5 mg/L in each case.
